Test results from patent US6465457B1 (priority 1991, dated 2002).
Like-named read-outs stand apart in the source and are kept apart here.

What was measured:
Format in all cases: in vivo
[1] = system: Phytophthora infestans (Tomatoes); settings: one or two days before inoculation
Septoria nodorum (Wheat) = assay: Foliar fungal disease test on plants: Septoria nodorum (Wheat); settings: one or two days before inoculation
Protocol: (§1) The compounds were tested against a variety of foliar fungal diseases of plants. The technique employed was as follows.
(§2) The plants were grown in John Innes Potting Compost (No 1 or 2) in 4 cm diameter minipots. The test compounds were formulated either by bead milling with aqueous DISPERSOL T or as a solution in acetone or acetone/ethanol which was diluted to the required concentration immediately before use. […] The sprays were applied to maximum retention and the root drenches to a final concentration equivalent to approximately 40 ppm a.i. in dry soil. TWEEN 20 was added to give a final concentration of 0.05% when the sprays were applied to cereals.
(§3) For most of the tests the compounds were applied to the soil (roots) or to the foliage (by spraying) one or two days before the plant was inoculated with the disease. An exception was the test on Erysiphe graminis in which the plants were inoculated 24 hours before treatment. Foliar pathogens were applied by spray as zoosporangial suspensions onto the leaves of test plants. After inoculation, the plants were put into an appropriate environment to allow infection to proceed and then incubated until the disease was ready for assessment. The period between inoculation and assessment varied from four to fourteen days according to the disease and environment.
(§4) The disease level present (i.e. leaf area covered by actively sporulating disease) on each of the treated plants was recorded using the following assessment scale:
(§5) Each assessment was then expressed as a percentage of the level of disease present on the untreated control plants. This calculated value is referred to as a POCO (Percentage of Control) value. An example of a typical calculation is as follows:
(§6) Disease level on untreated control=90
(§7) Disese level on treated plant=30 [formula]
(§8) This calculated POCO value is then rounded to the nearest of the values in the 9-point assessment scale shown above. In this particular example, the POCO value would be rounded to 30. If the calculated POCO falls exactly mid-way between two of the points, it is rounded to the lower of the two values.

[2] = system: Puccinia recondita (Wheat); assay: Foliar fungal disease test on plants: Puccinia recondita (Wheat)
Protocol: as §1
The plants were grown in John Innes Potting Compost (No 1 or 2) in 4 cm diameter minipots. The test compounds were formulated either by bead milling with aqueous DISPERSOL T or as a solution in acetone or acetone/ethanol which was diluted to the required concentration immediately before use. The formulations (100 ppm active ingredient) were sprayed on to the foliage or applied to the roots of the plants in the soil. The sprays were applied to maximum retention and the root drenches to a final concentration equivalent to approximately 40 ppm a.i. in dry soil. TWEEN 20 was added to give a final concentration of 0.05% when the sprays were applied to cereals.
as §3, with “For most of the tests the compounds were applied to the soil (roots) or to the foliage (by spraying) one or two days before the plant was inoculated with the disease.” left out
as §4, §5, §6, §7, §8

[3] = system: Venturia inaequalis (Apples); assay: Foliar fungal disease test on plants: Venturia inaequalis (Apples); settings: one or two days before inoculation
Protocol: as §1, §2, §3, §4, §5, §6, §7, §8

[4] = system: Pyricularia oryzae (Rice); settings: 100 ppm a.i. foliar spray or root drench (approx. 40 ppm in dry soil), one or two days before inoculation
[5] = system: Thanatephorus cucumeries (Rice); assay: Foliar fungal disease test on plants: Thanatephorus cucumeries (Rice); settings: one or two days before inoculation
Protocol: as §1, §2, §3, §4, §5, §6, §7, §8

[6] = system: Plasmopara viticola (Vines); assay: Foliar fungal disease test on plants: Plasmopara viticola (Vines); settings: one or two days before inoculation
Protocol: as §1, §2, §3, §4, §5, §6, §7, §8

[7] = system: Erysiphe graminis tritici (Wheat); assay: Foliar fungal disease test on plants: Erysiphe graminis tritici (Wheat); settings: plants inoculated 24 hours before treatment
Protocol: as §1, §2, §3, §4, §5, §6, §7, §8

[8] = 100 ppm a.i. foliar spray or root drench (approx. 40 ppm in dry soil)
[9] = 100 ppm a.i. foliar spray or root drench, plants inoculated with Puccinia recondita 48 hours before treatment

Compound	POCO (Percentage of Control) disease level, Phytophthora infestans (Tomatoes) [1, 8]	POCO (Percentage of Control) disease level, Septoria nodorum (Wheat) (Septoria nodorum (Wheat); [8])	POCO (Percentage of Control) disease level, Puccinia recondita (Wheat) [2, 9]	POCO (Percentage of Control) disease level, Venturia inaequalis (Apples) [3, 8]	POCO (Percentage of Control) disease level, Pyricularia oryzae (Rice) [4]	POCO (Percentage of Control) disease level, Thanatephorus cucumeries (Rice) [5, 8]	POCO (Percentage of Control) disease level, Plasmopara viticola (Vines) [6, 8]	POCO (Percentage of Control) disease level, Erysiphe graminis tritici (Wheat) [7, 8]	POCO (Percentage of Control) disease level, Phytophthora infestans (Tomatoes) ([1]; 10 ppm foliar spray only)	POCO (Percentage of Control) disease level, Septoria nodorum (Wheat) (Septoria nodorum (Wheat); 10 ppm foliar spray only)	POCO (Percentage of Control) disease level, Puccinia recondita (Wheat) ([2]; 10 ppm foliar spray only, plants inoculated with Puccinia recondita 48 hours before treatment)	POCO (Percentage of Control) disease level, Venturia inaequalis (Apples) ([3]; 10 ppm foliar spray only)	POCO (Percentage of Control) disease level, Thanatephorus cucumeries (Rice) ([5]; 10 ppm foliar spray only)	POCO (Percentage of Control) disease level, Plasmopara viticola (Vines) ([6]; 10 ppm foliar spray only)	POCO (Percentage of Control) disease level, Erysiphe graminis tritici (Wheat) ([7]; 10 ppm foliar spray only)	POCO (Percentage of Control) disease level, Puccinia recondita (Wheat) ([2]; 100 ppm a.i. foliar spray or root drench (approx. 40 ppm in dry soil), one or two days before inoculation)
CCN(C(=O)OCc1ccccc1C(=COC)C(=O)OC)c1c(F)cccc1F [23 (3)]	5 (5 = 3.1-5% disease present)	5 (5 = 3.1-5% disease present)	0+ (0 = 0% disease present)	0 (0 = 0% disease present)	1 (1 = 0.1-1% disease present)	0 (0 = 0% disease present)	0 (0 = 0% disease present)	0 (0 = 0% disease present)								
COC=C(C(=O)OC)c1ccccc1COC(=O)N(C)c1ccc(F)c(Cl)c1 [104 (2)]	10 (10 = 5.1-10% disease present)	0 (0 = 0% disease present)	0+ (0 = 0% disease present)	0 (0 = 0% disease present)	0 (0 = 0% disease present)	0 (0 = 0% disease present)	0 (0 = 0% disease present)	0 (0 = 0% disease present)								
CCN(C(=O)OCc1ccccc1C(=COC)C(=O)OC)c1cccc([N+](=O)[O-])c1F [106 (3)]	90 (90 and 94 = 60.1-100% disease present)	60 (60 = 30.1-60% disease present)	60+ (60 = 30.1-60% disease present)	0 (0 = 0% disease present)		0 (0 = 0% disease present)	0 (0 = 0% disease present)	30 (30 = 20.1-30% disease present)								
COC=C(C(=O)OC)c1ccccc1COC(=O)Nc1cccc(SC)c1 [10 (1)]									90 (90 and 94 = 60.1-100% disease present)	90 (90 and 94 = 60.1-100% disease present)	90+ (90 and 94 = 60.1-100% disease present)	0 (0 = 0% disease present)	90 (90 and 94 = 60.1-100% disease present)	90 (90 and 94 = 60.1-100% disease present)	90 (90 and 94 = 60.1-100% disease present)	
CO/C=C(/Oc1ccccc1OC(=O)NC(=O)c1ccccc1)C(=O)OC [1 (17), (E)-methyl 2-[2-((benzoyl)carbamoyloxy)phenoxy]-3-methoxypropenoate]	24 (20 and 24 = 10.1-20% disease present)	94 (90 and 94 = 60.1-100% disease present)		0 (0 = 0% disease present)	94 (90 and 94 = 60.1-100% disease present)		24 (20 and 24 = 10.1-20% disease present)	94 (90 and 94 = 60.1-100% disease present)								24 (20 and 24 = 10.1-20% disease present)
